Assay results: US6395876B1 (Medical College of Georgia Research Institute, Inc., priority 1997, dated 2002)
Several values for one entry are separate records, joined by “and”; a condition that tells them apart may be missing. Equal entries are not always repeated. Entries after “also recorded” stand apart in the source; their conditions may differ. Where two headings read alike, the source gives them in different places.

Legend:
system L [1] = experiment: Radiolabeled amino acid uptake saturation kinetics, lower-affinity system, macrophages; format: cell-based, human; conditions: for Km: read-out: Km of low affinity transporter (system L)
Excerpt: Monocyte isolation and culture.
Analysis of saturation kinetics.

[2] = tested on: high affinity tryptophan transporter; experiment: Competition of unlabeled substrates with radiolabeled tryptophan uptake, high-affinity system, macrophages; format: cell-based, human
Protocol: Uptake measurements. Single cell suspensions were obtained by treating macrophage monolayers with 2 mM EDTA in Hanks balanced salt solution for 15 minutes at room temperature. Cells were washed twice in Tris-choline buffer (150 mM choline chloride, 10 mM tris, pH 7.4), suspended in Tris-choline at between one and 2×10^6 cells/ml, and 100 μl/well added to 96 well microtiter plates. Titrations of radiolabeled amino acids were then transferred to the assay plate and uptake allowed to proceed for 10 minutes (the linear range). At the end of the assay period, wells were harvested simultaneously onto glass-fiber filters and washed vigorously for 30 seconds with phosphate buffered saline solution using a Tomtec 96 well parallel harvester. Nonspecific binding of radioactivity to the filters (based on wells without cells) was typically less than 10% of the total signal, and was subtracted from each data point. All assays were performed in triplicate; where error bars are not shown the SD between replicates was less than 10%. In all assays, the uptake rate (V) was normalized per 1×10^6 cells (expressed as pmol 10^6 cells^−1. 10 min^−1). Normalization to milligrams protein was considered less informative because protein content can change markedly during macrophage differentiation, independently of other functional attributes.

system L [3] = experiment: Competition of unlabeled substrates with radiolabeled tryptophan uptake, system L component, macrophages; format: cell-based, human; conditions: for Ki: read-out: Ki (fit to Equation 1, single-system competitive model)
Excerpt: (§1) For competitive inhibition studies, the Ki value for each competitor was estimated by fitting the measured inhibition curve to the formula in Equation 1 (Cheng and Prusoff 1973, Biochem. Pharmacol. 22, 3099-3108). [formula]
(§2) where [S] is the concentration of labeled substrate, [I] is the concentration of unlabeled inhibitor, Vi is the observed rate of uptake in the presence of inhibitor, Ki is the putative affinity constant of the inhibitor for the transporter, and Km and Vmax have their customary meanings.

system L [4] = experiment: Competition of unlabeled tryptophan for uptake of radiolabeled leucine or phenylalanine, macrophages; format: cell-based, human; conditions: labeled leucine or phenylalanine 125 nM
Excerpt: as §1, §2

[5] = tested on: monocyte derived macrophages; experiment: Total tryptophan uptake in monocyte-derived macrophages (sodium and temperature dependence); format: cell-based, human
Protocol: The majority of tryptophan uptake is sodium-independent. Uptake in the absence of sodium was 86±6% of uptake in saline, n=4 Therefore all subsequent assays were performed in the absence of sodium.

[6] = tested on: high affinity tryptophan transporter
Protocol: Human peripheral blood monocytes were isolated from healthy volunteer donors by leukocytapheresis and counterflow centrifugal elutriation, following appropriate informed consent under a protocol approved by our Institutional Review Board.
Single cell suspensions were obtained by treating macrophage monolayers with 2 mM EDTA in Hanks balanced salt solution for 15 minutes at room temperature. Cells were washed twice in Tris-choline buffer (150 mM choline chloride, 10 mM tris, pH 7.4), suspended in Tris-choline at between one and 2×10^6 cells/ml, and 100 μl/well added to 96 well microtiter plates. […] Nonspecific binding of radioactivity to the filters (based on wells without cells) was typically less than 10% of the total signal, and was subtracted from each data point. […] In all assays, the uptake rate (V) was normalized per 1×10^6 cells (expressed as pmol 10^6 cells^−1. 10 min^−1). […]
Uptake kinetics were analyzed using an Eadie-Hofstee transformation (V/[S] vs. V) to identify linear concentration ranges for each transporter. Data from these two ranges were then analyzed separately using double-reciprocal (Lineweaver-Burk, 1/[S] vs. 1/V) plots to determine Km and Vmax. […] Kinetic parameters were calculated on a minimum of 4-6 points, and were considered reliable if the correlation coefficient of the regression line was greater than 0.95. […]

system L [7] = conditions: read-out: reported Km of system L for tryptophan; reported affinity; cited from earlier work
[8] = uptake of the radiolabeled amino acid, high substrate concentrations (8-64 μM)
[9] = unlabeled competitor 4 μM, radiolabeled tryptophan 125 nM
[10] = unlabeled competitor vs radiolabeled tryptophan (125 or 250 nM)
[11] = read-out: IC50 for inhibition of radiolabeled tryptophan uptake, radiolabeled tryptophan 125 nM

Structure (SMILES): N[C@@H](Cc1ccccc1)C(=O)O [phenylalanine]
- Km (system L [1]; [8]): 29 ± 2 µM
- effect of 4 μM unlabeled competitor on tryptophan uptake [2, 9]: little impact
- competition with tryptophan for the high-affinity system [2, 10]: do not compete; also recorded: no detectable competition
- Ki (system L [3]; radiolabeled tryptophan 125 nM): ~10 µM

Structure (SMILES): CC(=O)N[C@@H](Cc1c[nH]c2ccccc12)C(=O)O [N-acetyl tryptophan]
- competition with tryptophan for the high-affinity system [2, 10]: did not compete

Structure (SMILES): N[C@@H](Cc1c[nH]c2ccccc12)C(=O)O [tryptophan]
- calculated uptake via system L alone (system L [1]; Equation 1, 50 nM tryptophan, 1 mM total other competing amino acids): 1.5 fmol 10^6 cells^−1. 10 min^−1
- Vmax, system L component (system L [1]; after macrophage differentiation): 27±4 pmol 10^6 cells^−1. 10 min^−1
- Vmax, system L component (system L [1]; before macrophage differentiation): 14±8 pmol 10^6 cells^−1. 10 min^−1
- Km (system L [1]): 27 µM and 30 µM and 20 to 30 µM
- Ki ([2]; radiolabeled tryptophan 125 nM, read-out: Ki (fit to Equation 1, single-system model)): 0.36 µM
- IC50 [2, 11]: 0.36 µM
- effect of 4 μM unlabeled competitor on tryptophan uptake [2, 9]: markedly inhibited
- high-affinity inhibition of phenylalanine or leucine uptake (system L [4]): no detectable
- Ki (system L [4]; read-out: Ki of tryptophan versus labeled leucine or phenylalanine uptake): 30 µM
- reduction of the rate of tryptophan accumulation at 0° C. ([5]; 0° C. vs 25° C., up to 30 min): 90%
- uptake in the absence of sodium relative to uptake in saline ([5]; radiolabeled tryptophan 125 nM, choline chloride vs 150 mM NaCl): 86% and 86±6%
- Km [6]: 0.29 ± 0.16 µM
- calculated uptake with the selective high-affinity system present [6]: 70 fmol 10^6 cells^−1. 10 min^−1
- Km (system L [7]): 8 to 30 µM

Structure (SMILES): N[C@@H](Cc1c[nH]cn1)C(=O)O [HIS]
- effect of 4 μM unlabeled competitor on tryptophan uptake [2, 9]: little impact

Structure (SMILES): NCCCC[C@H](N)C(=O)O [LYS]
- effect of 4 μM unlabeled competitor on tryptophan uptake [2, 9]: little impact

Structure (SMILES): N[C@@H](Cc1ccc(O)cc1)C(=O)O [TYR, tyrosine]
- effect of 4 μM unlabeled competitor on tryptophan uptake [2, 9]: little impact

Structure (SMILES): CSCC[C@H](N)C(=O)O [MET]
- effect of 4 μM unlabeled competitor on tryptophan uptake [2, 9]: little impact

Structure (SMILES): CC(C)[C@H](N)C(=O)O [VAL]
- effect of 4 μM unlabeled competitor on tryptophan uptake [2, 9]: little impact

Structure (SMILES): CC[C@H](C)[C@H](N)C(=O)O [ILE]
- effect of 4 μM unlabeled competitor on tryptophan uptake [2, 9]: little impact

Structure (SMILES): N[C@H](Cc1c[nH]c2ccccc12)C(=O)O [D-tryptophan]
- competition with tryptophan for the high-affinity system [2]: did not compete

Structure (SMILES): NC1(C(=O)O)CC2CCC1C2 (centres unmarked) [BCH, 2-aminobicyclo(2,2,1)-hepatane-2-carboxylic acid]
- mode of inhibition of tryptophan uptake, high-affinity range ([2]; less than 1 μM tryptophan, 500 μM unlabeled BCH): strictly non-competitive; also recorded: weak non-competitive inhibitor
- IC50 ([2]; saturation kinetics of tryptophan (<1 μM) with or without 500 μM BCH, read-out: IC50 for interaction with the high-affinity system): > 500 µM
- effect of 4 μM unlabeled competitor on tryptophan uptake [2, 9]: minimal effect; also recorded: little impact
- competition with tryptophan for the high-affinity system [2, 10]: no evidence of competition; also recorded: did not compete; also recorded: not able to compete
- mode of inhibition of tryptophan uptake, system L range (system L [3]; greater than 8 μM tryptophan, 500 μM unlabeled BCH): competitive inhibitor; also recorded: competitively inhibits
- IC50 of BCH relative to IC50 of tryptophan (system L [3]; inhibition of tryptophan transport, radiolabeled tryptophan 125 nM): approximately 100 fold
- inhibition of tryptophan transport by 8 mM unlabeled substrate (system L [3]; radiolabeled tryptophan 125 nM, unlabeled substrates 8 mM each): inhibited
- Ki (system L [3]; radiolabeled tryptophan 125 nM): 37 µM
- IC50 (system L [3]; [11]): 37 µM

Structure (SMILES): C[C@@H](O)[C@H](N)C(=O)O [THR]
- effect of 4 μM unlabeled competitor on tryptophan uptake [2, 9]: little impact

Structure (SMILES): CC(C)C[C@H](N)C(=O)O [leucine]
- Km (system L [1]; [8]): 26 ± 6 µM
- effect of 4 μM unlabeled competitor on tryptophan uptake [2, 9]: little impact
- competition with tryptophan for the high-affinity system [2, 10]: do not compete

Structure (SMILES): N[C@@H](Cc1c[nH]c2ccc(O)cc12)C(=O)O [5-hydroxy tryptophan]
- competition with tryptophan for the high-affinity system [2, 10]: did not compete
- competition with tryptophan for the high-affinity system ([2]; unlabeled competitor vs radiolabeled tryptophan (125 or 250 nM), listed as 5-hydroxy derivative of tryptophan): failed to compete

Structure (SMILES): NCCc1c[nH]c2ccc(O)cc12 [serotonin]
- competition with tryptophan for the high-affinity system [2, 10]: did not compete

Structure (SMILES): Cn1cc(C[C@H](N)C(=O)O)c2ccccc21 [1-methyl tryptophan]
- competition with tryptophan for the high-affinity system [2, 10]: no competition

Structure (SMILES): N=C(N)NCCC[C@H](N)C(=O)O [ARG]
- effect of 4 μM unlabeled competitor on tryptophan uptake [2]: little impact
